Results: US9416128B2, “Fused heterocyclic compounds as ion channel modulators” (Gilead Sciences, Inc., priority 2013, dated 2016)

What was measured:
[1] = target: wild-type human cardiac sodium channel, hNaV 1.5 (Late INa) (Homo sapiens, UniProt Q14524); experiment: Late INa screening assay (whole cell patch clamp, QPatch, Tefluthrin-induced late current); assay type: cell-based; settings: HEK293, % inhibition (percent block of late INa) at 1 uM; HEK293 hNaV1.5; 10 μM Tefluthrin; read-out: Nav1.5 Late INa 1 uM
Summary of the method: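 HEK293 cells stably expressing hNaV1.5 without beta subunits, whole-cell patch clamp at 23-25° C; late current induced by 10 μM Tefluthrin, measured 240-265 ms into 250 ms steps to −20 mV from −120 mV at 0.1 Hz. Compounds typically 0.3 or 1 μM, three additions over 5 min; percent block normalized to 0Na baseline with rundown correction.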

[2] = target: T1, hNaV1.2 (SCN2A) (Homo sapiens, UniProt Q99250); experiment: Use-dependent inhibition of the CNS NaV1.2 sodium channel; assay type: cell-based; settings: HEK-293, % inhibition, 25 Hz; for inhibition at 1 µM: use-dependent block at 1 uM, read-out: Nav1.2 UDB 25 Hz 1 uM; for inhibition at 10 µM: use-dependent block at 10 uM, read-out: Nav1.2 UDB 25 Hz 10 uM
T1 construct: expressed in transfected cells
Procedure: HEK-293 cells stably expressing wild-type (WT) hNaV1.2 (SCN2A NCBI # NM_021007.2, SCN1B NCBI # NM_001037.4, SCN2B NCBI # NM_004588.2) were used to record INa. Cells are maintained with standard tissue culture procedures and stable channel expression is maintained with 800 ug/mL G418 and 3 ug/mL Puromycin in the culture medium. Unless otherwise noted, all reagents are purchased from Sigma-Aldrich (St Louis, Mo., U.S.A.).
Assays measuring Use-Dependent Block (UDB) of NaV1.2 are performed on an automated electrophysiology platform, QPatch 16X or QPatch HT (Sophion Bioscience, Copenhagen, Denmark), using the whole cell patch clamp technique to measure currents through the cell membrane. Series resistance compensation is set to 100% and series resistance and whole-cell compensation are performed automatically. Currents stored in the Sophion Bioscience Oracle database (Sophion Bioscience, Copenhagen, Denmark). Analysis is performed using QPatch Assay software and data are compiled in Excel 2010 (Microsoft, Seattle, Wash., U.S.A.). The internal (pipette) solution consists of (in mM) 105 CsF, 10 NaF, 20 CsCl, 2 EGTA, 10 HEPES, 10 Dextrose with a pH of 7.35 and osmolarity of 300 mOsmol/kg. The external (bath) solution contains in (mM): 145 NaCl, 4 KCl, 1.8 CaCl2, 1 MgCl2, 10 dextrose, 10 HEPES, with a pH of 7.35 and osmolarity of 310 mOsmol/kg. Experiments are carried out at 23-25° C.
Compound stocks are routinely made by the Gilead Sample Bank in vials to 10 mM in dimethyl sulfoxide (DMSO). In some cases, when compounds are not soluble in DMSO, they are made in 100% ethanol. Stocks are sonicated as necessary. […]
Cells are allowed to stabilize for 10 min after establishment of the whole-cell configuration before current is measured. The test compound is applied 2 times at 60 second intervals. After the second compound addition, a 200 second wait period was imposed to allow for equilibration. Leak currents are subtracted by using an online P/4 procedure and all currents are low-pass Bessel filtered at 5 kHz and digitized at […].
Results are presented as mean percentage inhibition.
Use-dependent block of NaV1.2 peak current is measured during pulse number 20 of a voltage pulse train (0 mV, 20 ms, 20 pulses, 25 Hz) from a holding potential of −120 mV.
Currents are normalized to the peak current recorded in response to the first pulse in each frequency train. The voltage protocol for UDB was performed in the absence and presence of compound and percentage inhibition was calculated with respect to the compound free condition.
Data analysis is performed using QPatch Assay Software 4.0, and Excel 2002 (Microsoft, Seattle, Wash., U.S.A.).

wild-type human cardiac sodium channel, hNaV 1.5 (Late INa), sequence (Q14524 whole entry): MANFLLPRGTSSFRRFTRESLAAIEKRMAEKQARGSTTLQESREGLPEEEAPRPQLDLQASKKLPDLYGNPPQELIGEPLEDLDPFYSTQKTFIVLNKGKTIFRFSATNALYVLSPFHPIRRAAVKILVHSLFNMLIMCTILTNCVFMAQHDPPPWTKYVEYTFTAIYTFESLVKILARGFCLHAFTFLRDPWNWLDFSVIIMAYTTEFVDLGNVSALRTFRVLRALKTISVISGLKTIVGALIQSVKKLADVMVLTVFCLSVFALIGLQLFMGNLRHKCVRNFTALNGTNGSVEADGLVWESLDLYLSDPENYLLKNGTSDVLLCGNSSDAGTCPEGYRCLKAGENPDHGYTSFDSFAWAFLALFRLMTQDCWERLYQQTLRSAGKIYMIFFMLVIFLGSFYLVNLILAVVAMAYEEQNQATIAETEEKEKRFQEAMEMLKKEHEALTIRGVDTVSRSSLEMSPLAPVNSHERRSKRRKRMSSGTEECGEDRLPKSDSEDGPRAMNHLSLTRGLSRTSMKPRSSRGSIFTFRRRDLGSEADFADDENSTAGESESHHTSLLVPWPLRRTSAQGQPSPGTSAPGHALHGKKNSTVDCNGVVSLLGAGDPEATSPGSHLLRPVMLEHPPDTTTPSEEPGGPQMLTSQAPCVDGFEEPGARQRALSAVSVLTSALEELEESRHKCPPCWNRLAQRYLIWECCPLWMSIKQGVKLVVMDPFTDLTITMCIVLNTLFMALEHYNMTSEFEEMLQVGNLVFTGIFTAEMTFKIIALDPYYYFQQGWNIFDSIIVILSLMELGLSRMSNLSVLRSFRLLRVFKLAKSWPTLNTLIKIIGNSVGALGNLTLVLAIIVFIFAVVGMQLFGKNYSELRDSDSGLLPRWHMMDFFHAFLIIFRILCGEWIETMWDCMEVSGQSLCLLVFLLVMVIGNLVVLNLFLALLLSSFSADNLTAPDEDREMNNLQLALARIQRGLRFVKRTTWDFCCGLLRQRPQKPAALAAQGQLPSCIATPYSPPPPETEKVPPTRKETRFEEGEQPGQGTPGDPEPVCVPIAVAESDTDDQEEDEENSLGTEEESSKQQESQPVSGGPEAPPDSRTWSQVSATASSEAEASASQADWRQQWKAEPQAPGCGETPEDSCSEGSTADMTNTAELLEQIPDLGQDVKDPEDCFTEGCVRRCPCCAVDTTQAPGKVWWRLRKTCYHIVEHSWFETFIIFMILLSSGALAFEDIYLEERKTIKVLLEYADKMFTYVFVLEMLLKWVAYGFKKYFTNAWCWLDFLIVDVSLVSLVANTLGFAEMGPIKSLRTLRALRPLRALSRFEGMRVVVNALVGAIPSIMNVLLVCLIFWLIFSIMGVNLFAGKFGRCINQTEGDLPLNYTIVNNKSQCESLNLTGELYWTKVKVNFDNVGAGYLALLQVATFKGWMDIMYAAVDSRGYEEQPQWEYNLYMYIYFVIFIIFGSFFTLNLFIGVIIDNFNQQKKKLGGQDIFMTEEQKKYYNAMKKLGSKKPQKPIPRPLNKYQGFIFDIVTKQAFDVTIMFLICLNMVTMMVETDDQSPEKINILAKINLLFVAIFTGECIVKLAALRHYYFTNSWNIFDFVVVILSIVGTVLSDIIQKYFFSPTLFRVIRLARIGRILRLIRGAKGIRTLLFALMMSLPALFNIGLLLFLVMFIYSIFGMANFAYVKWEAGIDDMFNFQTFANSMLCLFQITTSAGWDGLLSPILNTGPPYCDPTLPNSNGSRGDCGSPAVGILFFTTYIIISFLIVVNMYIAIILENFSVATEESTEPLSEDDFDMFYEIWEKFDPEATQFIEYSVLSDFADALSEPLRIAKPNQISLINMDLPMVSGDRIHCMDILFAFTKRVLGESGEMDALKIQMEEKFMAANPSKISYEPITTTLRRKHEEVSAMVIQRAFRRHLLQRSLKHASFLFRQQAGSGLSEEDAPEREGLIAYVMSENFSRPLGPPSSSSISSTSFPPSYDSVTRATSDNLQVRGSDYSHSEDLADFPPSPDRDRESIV
T1 sequence (Q99250 whole entry): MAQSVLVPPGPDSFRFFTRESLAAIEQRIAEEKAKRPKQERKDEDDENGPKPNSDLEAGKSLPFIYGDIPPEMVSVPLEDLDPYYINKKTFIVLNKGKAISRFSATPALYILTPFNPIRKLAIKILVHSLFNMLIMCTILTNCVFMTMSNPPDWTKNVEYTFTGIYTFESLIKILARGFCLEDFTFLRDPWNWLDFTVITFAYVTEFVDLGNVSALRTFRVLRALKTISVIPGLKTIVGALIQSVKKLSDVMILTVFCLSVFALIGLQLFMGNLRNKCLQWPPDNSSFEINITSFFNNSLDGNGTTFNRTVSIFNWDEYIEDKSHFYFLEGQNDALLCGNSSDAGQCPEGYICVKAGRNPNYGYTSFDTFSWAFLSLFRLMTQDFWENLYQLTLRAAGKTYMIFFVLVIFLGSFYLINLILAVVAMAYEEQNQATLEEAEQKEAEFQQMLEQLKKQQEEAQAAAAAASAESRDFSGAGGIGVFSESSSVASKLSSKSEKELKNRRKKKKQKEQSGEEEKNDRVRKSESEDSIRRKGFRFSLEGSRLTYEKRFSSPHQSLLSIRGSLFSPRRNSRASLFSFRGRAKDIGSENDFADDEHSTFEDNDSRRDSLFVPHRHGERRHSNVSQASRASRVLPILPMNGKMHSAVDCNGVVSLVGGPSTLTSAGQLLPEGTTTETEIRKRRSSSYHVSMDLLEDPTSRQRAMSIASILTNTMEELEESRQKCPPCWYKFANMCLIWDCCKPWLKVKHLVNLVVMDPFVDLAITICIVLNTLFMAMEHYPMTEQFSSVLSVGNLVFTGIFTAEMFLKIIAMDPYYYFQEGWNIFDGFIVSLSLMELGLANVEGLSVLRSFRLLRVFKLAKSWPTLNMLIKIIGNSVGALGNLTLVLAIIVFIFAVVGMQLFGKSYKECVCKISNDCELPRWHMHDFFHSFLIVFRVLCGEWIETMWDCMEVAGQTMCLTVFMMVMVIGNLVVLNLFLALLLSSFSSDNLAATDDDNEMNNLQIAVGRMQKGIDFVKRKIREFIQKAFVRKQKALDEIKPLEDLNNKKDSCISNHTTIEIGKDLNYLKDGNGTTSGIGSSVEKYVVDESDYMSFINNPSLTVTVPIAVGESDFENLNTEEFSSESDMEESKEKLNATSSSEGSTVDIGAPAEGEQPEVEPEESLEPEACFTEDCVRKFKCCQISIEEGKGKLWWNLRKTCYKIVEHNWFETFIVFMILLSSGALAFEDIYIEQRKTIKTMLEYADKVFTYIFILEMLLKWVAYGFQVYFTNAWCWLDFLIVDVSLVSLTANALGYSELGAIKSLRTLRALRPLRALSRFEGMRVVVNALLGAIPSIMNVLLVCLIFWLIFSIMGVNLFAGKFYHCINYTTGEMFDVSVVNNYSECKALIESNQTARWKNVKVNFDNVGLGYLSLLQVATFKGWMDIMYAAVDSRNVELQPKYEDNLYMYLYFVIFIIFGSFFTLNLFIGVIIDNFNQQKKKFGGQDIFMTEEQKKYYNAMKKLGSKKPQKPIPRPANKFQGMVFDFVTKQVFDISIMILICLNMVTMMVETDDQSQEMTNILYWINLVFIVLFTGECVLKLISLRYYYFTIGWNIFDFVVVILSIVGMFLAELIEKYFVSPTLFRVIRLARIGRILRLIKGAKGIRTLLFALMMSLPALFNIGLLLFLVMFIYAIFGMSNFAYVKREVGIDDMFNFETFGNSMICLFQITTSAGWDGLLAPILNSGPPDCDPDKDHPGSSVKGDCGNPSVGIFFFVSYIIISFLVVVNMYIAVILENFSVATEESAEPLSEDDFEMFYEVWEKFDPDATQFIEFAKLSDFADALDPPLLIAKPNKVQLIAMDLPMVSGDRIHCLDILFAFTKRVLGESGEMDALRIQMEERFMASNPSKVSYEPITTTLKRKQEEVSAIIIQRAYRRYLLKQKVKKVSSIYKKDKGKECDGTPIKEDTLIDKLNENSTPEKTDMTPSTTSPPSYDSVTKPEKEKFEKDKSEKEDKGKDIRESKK
T1 sequence (Q07699 19-218 partner): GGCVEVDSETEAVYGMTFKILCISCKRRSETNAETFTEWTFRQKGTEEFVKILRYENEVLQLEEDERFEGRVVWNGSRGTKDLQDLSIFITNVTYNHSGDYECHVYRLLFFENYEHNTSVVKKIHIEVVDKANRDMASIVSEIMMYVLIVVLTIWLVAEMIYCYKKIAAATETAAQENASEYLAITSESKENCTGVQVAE
T1 sequence (O60939 30-215 partner): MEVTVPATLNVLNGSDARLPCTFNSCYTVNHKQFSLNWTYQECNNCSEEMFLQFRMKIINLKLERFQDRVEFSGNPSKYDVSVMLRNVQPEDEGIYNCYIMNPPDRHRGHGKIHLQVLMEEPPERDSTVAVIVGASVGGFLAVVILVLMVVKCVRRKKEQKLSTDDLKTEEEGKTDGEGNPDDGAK

SMILES: Cc1ccnc(CN2Cc3cc(-c4ccc(C(F)(F)F)cc4)ccc3OC2=O)n1 [Example 30, 3-((4-methylpyrimidin-2-yl)methyl)-6-(4-(trifluoromethyl)phenyl)-3,4-dihydro-2H-benzo[e][1,3]oxazin-2-one]
- inhibition at 1 µM [1]: 54.5%
- inhibition at 1 µM [2]: 47.1%
- inhibition at 10 µM [2]: 79.6%

SMILES: COc1cc(OC(F)(F)F)ccc1-c1ccc2c(c1)CN(Cc1nccc(C)n1)C(=O)O2 [Example 31, 6-(2-methoxy-4-(trifluoromethoxy)phenyl)-3-((4-methylpyrimidin-2-yl)methyl)-3,4-dihydro-2H-benzo[e][1,3]oxazin-2-one]
- inhibition at 1 µM [1]: 34.4%
- inhibition at 1 µM [2]: 13.2%
- inhibition at 10 µM [2]: 45.7%

SMILES: Cc1ccnc(CN2Cc3cc(-c4ccc(OC(F)(F)F)cc4F)ccc3OC2=O)n1 [Example 32, 6-(2-fluoro-4-(trifluoromethoxy)phenyl)-3-((4-methylpyrimidin-2-yl)methyl)-3,4-dihydro-2H-benzo[e][1,3]oxazin-2-one]
- inhibition at 1 µM [1]: 43.4%
- inhibition at 1 µM [2]: 8.1%
- inhibition at 10 µM [2]: 41%

SMILES: Cc1ccnc(CN2Cc3cc(-c4ccc(OC(F)(F)F)cc4C)ccc3OC2=O)n1 [Example 33, 6-(2-methyl-4-(trifluoromethoxy)phenyl)-3-((4-methylpyrimidin-2-yl)methyl)-3,4-dihydro-2H-benzo[e][1,3]oxazin-2-one]
- inhibition at 1 µM [1]: 33%
- inhibition at 1 µM [2]: 17.2%
- inhibition at 10 µM [2]: 55.2%

SMILES: COc1cc(C(F)(F)F)ccc1-c1ccc2c(c1)CN(Cc1ncccn1)C(=O)O2 [Example 34, 6-(2-methoxy-4-(trifluoromethyl)phenyl)-3-(pyrimidin-2-ylmethyl)-3,4-dihydro-2H-benzo[e][1,3]oxazin-2-one]
- inhibition at 1 µM [1]: 44.6%
- inhibition at 1 µM [2]: 38.8%
- inhibition at 10 µM [2]: 78.5%

SMILES: CCOc1cc(C(F)(F)F)ccc1-c1ccc2c(c1)CN(Cc1ncccn1)C(=O)O2 [Example 35, 6-(2-ethoxy-4-(trifluoromethyl)phenyl)-3-(pyrimidin-2-ylmethyl)-3,4-dihydro-2H-benzo[e][1,3]oxazin-2-one]
- inhibition at 1 µM [1]: 49.4%
- inhibition at 1 µM [2]: 39.3%
- inhibition at 10 µM [2]: 75.1%

SMILES: O=C1Oc2ccc(-c3ccc(C(F)(F)F)cc3F)cc2CN1Cc1ncccn1 [Example 36, 6-(2-fluoro-4-(trifluoromethyl)phenyl)-3-(pyrimidin-2-ylmethyl)-3,4-dihydro-2H-benzo[e][1,3]oxazin-2-one]
- inhibition at 1 µM [1]: 43.6%
- inhibition at 1 µM [2]: 19.1%
- inhibition at 10 µM [2]: 55.9%

SMILES: Cc1cc(C(F)(F)F)ccc1-c1ccc2c(c1)CN(Cc1ncccn1)C(=O)O2 [Example 37, 6-(2-methyl-4-(trifluoromethyl)phenyl)-3-(pyrimidin-2-ylmethyl)-3,4-dihydro-2H-benzo[e][1,3]oxazin-2-one]
- inhibition at 1 µM [1]: 41.1%
- inhibition at 1 µM [2]: 7.8%
- inhibition at 10 µM [2]: 27.1%

SMILES: O=C1Oc2ccc(-c3ccc(C4(C(F)(F)F)CC4)cc3)cc2CN1Cc1ncccn1 [Example 38, 3-(pyrimidin-2-ylmethyl)-6-(4-(1-(trifluoromethyl)cyclopropyl)phenyl)-3,4-dihydro-2H-benzo[e][1,3]oxazin-2-one]
- inhibition at 1 µM [1]: 54.2%
- inhibition at 1 µM [2]: 34.1%
- inhibition at 10 µM [2]: 71.8%

SMILES: CC(C)Oc1cc(OC(F)(F)F)ccc1-c1ccc2c(c1)CN(Cc1ncccn1)C(=O)O2 [Example 39, 6-(2-isopropoxy-4-(trifluoromethoxy)phenyl)-3-(pyrimidin-2-ylmethyl)-3,4-dihydro-2H-benzo[e][1,3]oxazin-2-one]
- inhibition at 1 µM [1]: 33.7%
- inhibition at 1 µM [2]: 16%
- inhibition at 10 µM [2]: 59.3%

SMILES: CCOc1cc(OC(F)(F)F)ccc1-c1ccc2c(c1)CN(Cc1ncccn1)C(=O)O2 [Example 40, 6-(2-ethoxy-4-(trifluoromethoxy)phenyl)-3-(pyrimidin-2-ylmethyl)-3,4-dihydro-2H-benzo[e][1,3]oxazin-2-one]
- inhibition at 1 µM [1]: 49.4%
- inhibition at 1 µM [2]: 16.7%
- inhibition at 10 µM [2]: 62.5%

SMILES: Cc1cnc(CN2Cc3cc(-c4ccc(C(F)(F)F)cc4F)ccc3OC2=O)nc1 [Example 41, 6-(2-fluoro-4-(trifluoromethyl)phenyl)-3-((5-methylpyrimidin-2-yl)methyl)-3,4-dihydro-2H-benzo[e][1,3]oxazin-2-one]
- inhibition at 1 µM [1]: 45.7%
- inhibition at 1 µM [2]: 7.1%
- inhibition at 10 µM [2]: 36.2%

SMILES: COc1cc(C(F)(F)F)ccc1-c1ccc2c(c1)CN(Cc1ncc(C)cn1)C(=O)O2 [Example 42, 6-(2-methoxy-4-(trifluoromethyl)phenyl)-3-((5-methylpyrimidin-2-yl)methyl)-3,4-dihydro-2H-benzo[e][1,3]oxazin-2-one]
- inhibition at 1 µM [1]: 42.7%
- inhibition at 1 µM [2]: 13.3%
- inhibition at 10 µM [2]: 47.4%

SMILES: Cc1cnc(CN2Cc3cc(-c4ccc(C(F)(F)F)cc4C)ccc3OC2=O)nc1 [Example 43, 6-(2-methyl-4-(trifluoromethyl)phenyl)-3-((5-methylpyrimidin-2-yl)methyl)-3,4-dihydro-2H-benzo[e][1,3]oxazin-2-one]
- inhibition at 1 µM [1]: 37.9%
- inhibition at 1 µM [2]: < 5%
- inhibition at 10 µM [2]: 48.9%

SMILES: COc1cc(C(F)(F)F)ccc1-c1ccc2c(c1)CN(Cc1cccc(C)n1)C(=O)O2 [Example 44, 6-(2-methoxy-4-(trifluoromethyl)phenyl)-3-((6-methylpyridin-2-yl)methyl)-3,4-dihydro-2H-benzo[e][1,3]oxazin-2-one]
- inhibition at 1 µM [1]: 44.8%
- inhibition at 1 µM [2]: 20.9%
- inhibition at 10 µM [2]: 68.4%

SMILES: Cc1cccc(CN2Cc3cc(-c4ccc(C(F)(F)F)cc4F)ccc3OC2=O)n1 [Example 45, 6-(2-fluoro-4-(trifluoromethyl)phenyl)-3-((6-methylpyridin-2-yl)methyl)-3,4-dihydro-2H-benzo[e][1,3]oxazin-2-one]
- inhibition at 1 µM [1]: 53.6%
- inhibition at 1 µM [2]: 10.4%
- inhibition at 10 µM [2]: 62.3%

SMILES: COc1cc(OC(F)(F)F)ccc1-c1ccc2c(c1)CN(Cc1cccc(C)n1)C(=O)O2 [Example 46, 6-(2-methoxy-4-(trifluoromethoxy)phenyl)-3-((6-methylpyridin-2-yl)methyl)-3,4-dihydro-2H-benzo[e][1,3]oxazin-2-one]
- inhibition at 1 µM [1]: 51.3%
- inhibition at 1 µM [2]: 22.4%
- inhibition at 10 µM [2]: 77.2%

SMILES: Cc1cccc(CN2Cc3cc(-c4ccc(OC(F)(F)F)cc4F)ccc3OC2=O)n1 [Example 47, 6-(2-fluoro-4-(trifluoromethoxy)phenyl)-3-((6-methylpyridin-2-yl)methyl)-3,4-dihydro-2H-benzo[e][1,3]oxazin-2-one]
- inhibition at 1 µM [1]: 52.8%
- inhibition at 1 µM [2]: 14.1%
- inhibition at 10 µM [2]: 55.6%

SMILES: Cc1csc(CN2Cc3cc(-c4ccc(OC(F)(F)F)cc4)ccc3OC2=O)n1 [Example 52, 3-((4-methylthiazol-2-yl)methyl)-6-(4-(trifluoromethoxy)phenyl)-3,4-dihydro-2H-benzo[e][1,3]oxazin-2-one]
- inhibition at 1 µM [1]: 58%
- inhibition at 1 µM [2]: 20.8%
- inhibition at 10 µM [2]: 63.7%

SMILES: Cc1csc(CN2Cc3cc(-c4ccc(OC(F)(F)F)c(F)c4)ccc3OC2=O)n1 [Example 53, 6-(3-fluoro-4-(trifluoromethoxy)phenyl)-3-((4-methylthiazol-2-yl)methyl)-3,4-dihydro-2H-benzo[e][1,3]oxazin-2-one]
- inhibition at 1 µM [1]: 60.3%
- inhibition at 1 µM [2]: 32.3%
- inhibition at 10 µM [2]: 73.6%
